Measured values from patent publication US20120214760A1, “TREATMENT OF URINARY TRACT INFECTIONS WITH ANTIBACTERIAL AMINOGLYCOSIDE COMPOUNDS” (Achaogen, Inc., priority 2009, published 2012).
Values after ≈ are worked out from the molar mass of the structure shown. Where two headings read alike, the source gives them in different places.

Key:
Type in all cases: cell-based
Pathogens (169 in total) = experiment: Susceptibility testing, all urinary tract infection isolates; settings: all 169 isolates
Method: (§1) Minimum inhibitory concentrations (MIC) were determined by reference Clinical and Laboratory Standards Institute (CLSI) broth microdilution methods per M7-A7 [2006]. Quality control ranges utilizing E. coli ATCC 25922, P. aeruginosa ATCC 27853 and S. aureus ATCC 29213, and interpretive criteria for comparator agents were as published in CLSI M100-S17 [2007]. Briefly, serial two-fold dilutions of the test compounds were prepared at 2× concentration in Mueller Hinton Broth. The compound dilutions were mixed in 96-well assay plates in a 1:1 ratio with bacterial inoculum. The inoculum was prepared by suspension of a colony from an agar plate that was prepared the previous day. Bacteria were suspended in sterile saline and added to each assay plate to obtain a final concentration of 5×10^5 CFU/mL. The plates were incubated at 35° C. for 20 hours in ambient air.
In order to determine the activity of representative antibacterial aminoglycoside compounds against bacterial species that commonly cause complicated urinary tract infections worldwide, isolates were collected from 47 medical centers in the U.S. and Europe (10 countries) from urine or blood culture with the source of bacteremia documented as a urinary tract infection. Strains were susceptibility tested against Example 1, gentamicin, amikacin and 10 comparators by CLSI broth microdilution. These MIC assays were conducted following the same protocol as set forth in Example 110. Pathogens (169 in total) included E. coli, Klebsiella spp., Enterobacter spp., Citrobacter spp., P. mirabilis, M. Morganii, P. aeruginosa, S. aureus and S. saprophyticus.

[1] = test system: E. coli ATCC 25922 (AECO001); experiment: MIC, CLSI broth microdilution; settings: for MIC: Escherichia coli; for MIC AECO001: Table 3
In short: (§2)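 Test compounds were diluted two-fold at 2× strength in Mueller Hinton Broth, then combined 1:1 with saline-suspended bacteria from an overnight agar colony to reach 5×10^5 CFU/mL. Incubation followed at 35° C. for 20 hours in ambient air, per CLSI reference methods.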

[2] = test system: P. aeruginosa ATCC 27853 (APAE001); experiment: MIC, CLSI broth microdilution; settings: Pseudomonas aeruginosa
In short: as §2

[3] = test system: A. calcoaceticus AACA005, AAC(6′)-I; experiment: MIC, aminoglycoside resistant strain; settings: Table 3
Method: as §1
(§3) These MIC assays were conducted following the same protocol as set forth in Example 110. As shown, substituted sisomicin derivatives with groups other than methyl at the 6′-position have improved activity against strains expressing the AAC6′-modifying enzymes.

[4] = test system: S. marcescens ASMA003, ANT(2″) + AAC(6′); experiment: MIC, aminoglycoside resistant strain; settings: Table 3
Method: as §1, §3

[5] = test system: E. coli AECO040, AAC(6′)-I; experiment: MIC, aminoglycoside resistant strain; settings: Table 3
Method: as §1, §3

[6] = ATCC25922, read-out: MIC AECO001, Table 1, AECO001 is ATCC25922
[7] = ATCC27853, read-out: MIC APAE001, Table 1, APAE001 is ATCC27853
[8] = ATCC25922, Table 2, read-out: MIC E. coli
[9] = Table 1, AECO001 is ATCC25922, read-out: MIC AECO001
[10] = ATCC27853, Table 2, read-out: MIC P. aeruginosa

| SMILES | Overall susceptibility rate (Pathogens (169 in total)) [%] | MIC [1, 6] [mg/L] | MIC AECO001 ([1]; ATCC25922) [mg/L] | MIC [2, 7] [mg/L] | MIC AACA005 [3] [mg/L] | MIC ASMA003 [4] [mg/L] | MIC AECO040 [5] [mg/L] | MIC [1, 8] [mg/L] | MIC [1, 9] [mg/L] | MIC [2, 10] [mg/L] |
| --- | --- | --- | --- | --- | --- | --- | --- | --- | --- | --- |
| NCC[C@H](O)C(=O)N[C@@H]1C[C@H](N)[C@@H](O[C@H]2O[C@H](CN)[C@@H](O)[C@H](O)[C@H]2O)[C@H](O)[C@H]1O[C@H]1O[C@H](CO)[C@@H](O)[C@H](N)[C@H]1O [Amikacin, amikacin, reference compound] | 94.1 | – | – | – | – | – | – | – | – | – |
| CN[C@@H]1[C@@H](O)[C@@H](O[C@@H]2[C@@H](O)[C@H](O[C@H]3OC(CNCC4CCNCC4)=CC[C@H]3N)[C@@H](N)C[C@H]2NC(=O)[C@@H](O)CCN)OC[C@]1(C)O [Example 12, 6′-(Methyl-piperidin-4-yl)-1-(4-amino-2(S)-hydroxy-butyryl)-sisomicin] | – | 1 to 16 (≈ 1.55 to 24.8 µM) | 1 (≈ 1.55 µM) | 1 to 16 (≈ 1.55 to 24.8 µM) | 2 (≈ 3.1 µM) | 4 (≈ 6.19 µM) | 0.5 (≈ 0.774 µM) | – | – | – |
| CN[C@@H]1[C@@H](O)[C@@H](O[C@@H]2[C@@H](O)[C@H](O[C@H]3OC(CNCC4CC4)=CC[C@H]3N)[C@@H](N)C[C@H]2NC(=O)[C@@H](O)CN)OC[C@]1(C)O [Example 13, 6′-(Methyl-cyclopropyl)-1-(3-amino-2(S)-hydroxy-propionyl)-sisomicin] | – | 1 to 16 (≈ 1.7 to 27.2 µM) | 1 (≈ 1.7 µM) | > 16 | 2 (≈ 3.4 µM) | 2 (≈ 3.4 µM) | 0.125 (≈ 0.212 µM) | – | – | – |
| CN[C@@H]1[C@@H](O)[C@@H](O[C@@H]2[C@@H](O)[C@H](O[C@H]3OC(CNCCO)=CC[C@H]3N)[C@@H](N)C[C@H]2NC(=O)[C@@H](O)CN)OC[C@]1(C)O [Example 16, 6′-(2-Hydroxy-ethyl)-1-(3-amino-2(S)-hydroxy-propionyl)-sisomicin] | – | – | 1 (≈ 1.73 µM) | – | 2 (≈ 3.46 µM) | 2 (≈ 3.46 µM) | 1 (≈ 1.73 µM) | < 1 | < 1 | 1 to 16 (≈ 1.73 to 27.6 µM) |
| CN[C@@H]1[C@@H](O)[C@@H](O[C@@H]2[C@@H](O)[C@H](O[C@H]3OC(CNCCCN)=CC[C@H]3N)[C@@H](N)C[C@H]2NC(=O)[C@@H](O)CN)OC[C@]1(C)O [Example 17, 6′-(3-Amino-propyl)-1-(3-amino-2(S)-hydroxy-propionyl)-sisomicin] | – | – | 1 (≈ 1.69 µM) | – | 2 (≈ 3.38 µM) | 2 (≈ 3.38 µM) | 0.5 (≈ 0.845 µM) | < 1 | < 1 | 1 to 16 (≈ 1.69 to 27 µM) |
| CN[C@@H]1[C@@H](O)[C@@H](O[C@@H]2[C@@H](O)[C@H](O[C@H]3OC(CNCC4CC4)=CC[C@H]3N)[C@@H](N)C[C@H]2NC(=O)[C@@H](O)CCN)OC[C@]1(C)O [Example 18, 6′-(Methyl-cyclopropyl)-1-(4-amino-2(S)-hydroxy-butyryl)-sisomicin] | – | < 1 | 1 (≈ 1.66 µM) | 1 to 16 (≈ 1.66 to 26.5 µM) | 2 (≈ 3.32 µM) | 4 (≈ 6.64 µM) | 0.25 (≈ 0.415 µM) | – | – | – |
| CN[C@@H]1[C@@H](O)[C@@H](O[C@@H]2[C@@H](O)[C@H](O[C@H]3OC(CNCCCN)=CC[C@H]3N)[C@@H](N)C[C@H]2NC(=O)[C@@H](O)CCN)OC[C@]1(C)O [Example 48, 6′-(3-Amino-propyl)-1-(4-amino-2(S)-hydroxy-butyryl)-sisomicin] | – | < 1 | 1 (≈ 1.65 µM) | 1 to 16 (≈ 1.65 to 26.4 µM) | 2 (≈ 3.3 µM) | 2 (≈ 3.3 µM) | 0.5 (≈ 0.825 µM) | – | – | – |
| CNCC1=CC[C@@H](N)[C@@H](O[C@H]2[C@H](O)[C@@H](O[C@H]3OC[C@](C)(O)[C@H](NC)[C@H]3O)[C@H](NC(=O)C3(O)CNC3)C[C@@H]2N)O1 [Example 61] | – | < 1 | 1 (≈ 1.78 µM) | 1 to 16 (≈ 1.78 to 28.5 µM) | 2 (≈ 3.57 µM) | 4 (≈ 7.13 µM) | 16 (≈ 28.5 µM) | – | – | – |
| CN[C@@H]1[C@@H](O)[C@@H](O[C@@H]2[C@@H](O)[C@H](O[C@H]3OC(CNC(=N)N)=CC[C@H]3NC(=N)N)[C@@H](N)C[C@H]2N)OC[C@]1(C)O [Example 105, 6′,2′-bis-Guanidinium-sisomicin] | – | > 16 | – | > 16 | – | – | – | – | – | – |
| CN[C@@H]1[C@@H](O)[C@@H](O[C@@H]2[C@@H](O)[C@H](O[C@H]3OC(CNCCO)=CC[C@H]3NC(=N)N)[C@@H](N)C[C@H]2N)OC[C@]1(C)O [Example 106, 6′-(2-Hydroxy-ethyl)-2′-guanidinium-sisomicin] | – | < 1 | – | 1 to 16 (≈ 1.87 to 30 µM) | – | – | – | – | – | – |
| CN[C@@H]1[C@@H](O)[C@@H](O[C@@H]2[C@@H](O)[C@H](O[C@H]3OC(CNC[C@H]4C[C@H](N)C4)=CC[C@H]3NC(=N)N)[C@@H](N)C[C@H]2N)OC[C@]1(C)O [Example 107, 6′-(Methyl-trans-3-amino-cyclobutyl)-2′-guanidinium-sisomicin] | – | 1 to 16 (≈ 1.75 to 27.9 µM) | – | < 1 | – | – | – | – | – | – |
| CNCC1=CC[C@@H](NC(=N)N)[C@@H](O[C@H]2[C@H](O)[C@@H](O[C@H]3OC[C@](C)(O)[C@H](NC)[C@H]3O)[C@H](N)C[C@@H]2N)O1 [Example 108, 6′-Methyl-2′-guanidinium-sisomicin] | – | < 1 | – | 1 to 16 (≈ 1.99 to 31.8 µM) | – | – | – | – | – | – |
| CNCC1=CC[C@@H](N)[C@@H](O[C@H]2C(O)[C@@H](O[C@H]3OC[C@](C)(O)[C@H](NC)[C@H]3O)[C@H](N)C[C@@H]2N)O1 (stereo partly shown) [Mono-substituted Compound 1, reference compound] | – | – | 1 (≈ 2.17 µM) | – | 2 (≈ 4.33 µM) | 1 (≈ 2.17 µM) | > 64 | – | – | – |
| CN[C@@H]1[C@@H](O)[C@@H](O[C@@H]2C(O)[C@H](O[C@H]3OC(CNCC4CC4)=CC[C@H]3N)[C@@H](N)C[C@H]2N)OC[C@]1(C)O (stereo partly shown) [Mono-substituted Compound 2, reference compound] | – | – | 1 (≈ 1.99 µM) | – | 4 (≈ 7.97 µM) | 0.5 (≈ 0.997 µM) | 1 (≈ 1.99 µM) | – | – | – |
| CN[C@@H]1[C@@H](O)[C@@H](O[C@@H]2C(O)[C@H](O[C@H]3OC(CNCC4CCNCC4)=CC[C@H]3N)[C@@H](N)C[C@H]2N)OC[C@]1(C)O (stereo partly shown) [Mono-substituted Compound 3, reference compound] | – | – | 0.5 (≈ 0.918 µM) | – | 0.5 (≈ 0.918 µM) | 1 (≈ 1.84 µM) | 0.25 (≈ 0.459 µM) | – | – | – |
| CN[C@@H]1[C@@H](O)[C@@H](O[C@@H]2C(O)[C@H](O[C@H]3OC(CNCCCN)=CC[C@H]3N)[C@@H](N)C[C@H]2N)OC[C@]1(C)O (stereo partly shown) [Mono-substituted Compound 4, reference compound] | – | – | 2 (≈ 3.96 µM) | – | 1 (≈ 1.98 µM) | 1 (≈ 1.98 µM) | 16 (≈ 31.7 µM) | – | – | – |
| CN[C@@H]1C(O)[C@@H](O[C@@H]2[C@@H](O)[C@H](OC3OC(CN)=CC[C@H]3N)[C@@H](N)C[C@H]2NC(=O)[C@@H](O)CN)OC[C@]1(C)O (stereo partly shown) [Mono-substituted Compound 5, reference compound] | – | – | 0.5 (≈ 0.935 µM) | – | 32 (≈ 59.9 µM) | 2 (≈ 3.74 µM) | 8 (≈ 15 µM) | – | – | – |
| CN[C@@H]1C(O)[C@@H](O[C@@H]2[C@@H](O)[C@H](OC3OC(CN)=CC[C@H]3N)[C@@H](N)C[C@H]2NC(=O)[C@@H](O)CCN)OC[C@]1(C)O (stereo partly shown) [Mono-substituted Compound 6, reference compound] | – | – | 0.5 (≈ 0.911 µM) | – | 16 (≈ 29.2 µM) | 4 (≈ 7.29 µM) | 4 (≈ 7.29 µM) | – | – | – |
| CN[C@@H]1C(O)[C@@H](O[C@@H]2[C@@H](O)[C@H](OC3OC(CN)=CC[C@H]3N)[C@@H](N)C[C@H]2NC(=O)C2(O)CNC2)OC[C@]1(C)O (stereo partly shown) [Mono-substituted Compound 7, reference compound] | – | – | 1 (≈ 1.83 µM) | – | 32 (≈ 58.5 µM) | 16 (≈ 29.3 µM) | 4 (≈ 7.32 µM) | – | – | – |
| CN[C@@H]1[C@@H](O)[C@@H](O[C@@H]2[C@@H](O)[C@H](O[C@H]3OC(CN)=CC[C@H]3N)[C@@H](N)C[C@H]2N)OC[C@]1(C)O [Sisomicin, reference compound] | – | – | 0.5 (≈ 1.12 µM) | – | 32 (≈ 71.5 µM) | 8 (≈ 17.9 µM) | 32 (≈ 71.5 µM) | – | – | – |
